# Source: patent publication US20250163104A1, “MACROCYCLIC IMMUNOMODULATORS” (priority 2021, published 2025)
# Where a SMILES comes first, the peptide text is derived from it. Bridges are numbered along the chain shown (N, C = ends). [ ]: non-standard residue; d: D form. The star is where a group is joined. ξ: configuration not given here. Phe(4-COOH) = N[C@@H](Cc1ccc(C(=O)O)cc1)C(=O)O; Bip = N[C@@H](Cc1ccc(-c2ccccc2)cc1)C(=O)O; Phe(3-Me) = Cc1cccc(C[C@H](N)C(=O)O)c1; ξW = NC(Cc1c[nH]c2ccccc12)C(=O)O; 3Pal = N[C@@H](Cc1cccnc1)C(=O)O; 4Pal = N[C@@H](Cc1ccncc1)C(=O)O; Cit = NC(=O)NCCC[C@H](N)C(=O)O; Carboxymethyl = O=C(O)C*; Orn = NCCC[C@H](N)C(=O)O; Dab = NCC[C@H](N)C(=O)O; Dap = NC[C@H](N)C(=O)O
# Molecular target: T1, human PD-1 / PD-L1-Ig binding on Jurkat cell line over-expressing human PD-1 (Jurkat-PD-1) (Homo sapiens, UniProt Q15116)
# T1 construct: expressed in transfected cells; host or cells: Jurkat
# Experiment: Jurkat-PD-1 Cell Binding High-Content Screening Assay (CBA)
# Assay type: cell-based
# Details: Jurkat HPD1_PDL1 IC50, Jurkat-PD-1 cells, PE-labeled PD-L1-Ig 20 nM final
# Outline: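 Jurkat cells over-expressing human PD-1, in DMEM/10% FCS, pre-incubated with compound 2 h at 37° C. PE-labeled human PD-L1-Ig (20 nM final) added for 1 h; cells fixed in paraformaldehyde with Hoechst 33342 nuclear stain, washed, and bound fluorescence quantified by high-content imaging.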
# T1 sequence (Q15116 25-288): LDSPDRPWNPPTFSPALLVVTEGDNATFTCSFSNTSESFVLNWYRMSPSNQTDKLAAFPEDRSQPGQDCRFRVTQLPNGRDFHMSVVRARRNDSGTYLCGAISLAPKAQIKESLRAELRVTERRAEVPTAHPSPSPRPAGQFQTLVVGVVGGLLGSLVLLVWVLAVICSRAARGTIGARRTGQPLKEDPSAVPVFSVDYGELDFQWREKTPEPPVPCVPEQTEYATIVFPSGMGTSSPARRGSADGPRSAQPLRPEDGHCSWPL
row,SMILES,IC50
1,CC[C@H](C)[C@@H]1NC(=O)[C@H](Cc2ccc(-c3ccccc3)cc2)NC(=O)[C@H](C(C)C)NC(=O)[C@H](Cc2cccc(C)c2)NC(=O)[C@H](CC(=O)O)NC(=O)[C@H](Cc2ccc(OCC(=O)O)cc2)NC(=O)[C@H](Cc2cccnc2)NC(=O)CSC[C@@H](C(=O)N[C@@H](C)C(N)=O)NC(=O)[C@H]([C@@H](C)O)NC(=O)[C@H](C(C)C)NC(=O)[C@H](CC(C)C)NC(=O)[C@H](CCN)NC(=O)[C@@H](CC(C)C)NC(=O)[C@H](CCCN)NC1=O [Compound 1224],11.3 nM

# Same assay, conditions: Jurkat-PD-1 cells, PE-labeled PD-L1-Ig 20 nM final; read-out: Jurkat HPD1_PDL1 IC50
row,SMILES,IC50
1,CC(C)C[C@@H]1NC(=O)C(Cc2c[nH]c3ccccc23)NC(=O)[C@H](CC(=O)O)NC(=O)[C@H](Cc2ccc(O)cc2)NC(=O)[C@H](Cc2ccccc2)NC(=O)CSC[C@@H](C(=O)N[C@@H](C)C(N)=O)NC(=O)[C@H](CO)NC(=O)[C@H](C(C)C)NC(=O)[C@H](CC(C)C)NC(=O)[C@H](CC(N)=O)NC(=O)[C@@H](CC(C)C)NC(=O)[C@H](CN)NC(=O)[C@H](CCCNC(N)=O)NC(=O)[C@H](Cc2ccc(-c3ccccc3)cc2)NC1=O (stereo partly drawn) [Compound 1217] ({CH2CO}-FYD[ξW]L[Bip][Cit][Dap][dL]NLVSCA-NH2; thioether N-14),25.4 nM
2,Cc1cccc(C[C@@H]2NC(=O)[C@H](CC(=O)O)NC(=O)[C@H](Cc3ccc(OCC(=O)O)cc3)NC(=O)[C@H](Cc3cccnc3)NC(=O)CSC[C@@H](C(=O)N[C@@H](C)C(N)=O)NC(=O)[C@H]([C@@H](C)O)NC(=O)[C@H](C(C)C)NC(=O)[C@H](CC(C)C)NC(=O)[C@H](CCN)NC(=O)[C@@H](CC(C)C)NC(=O)[C@H](CCCN)NC(=O)[C@H](C(C)C)NC(=O)[C@H](Cc3ccc(-c4ccccc4)cc3)NC(=O)[C@H](C(C)C)NC2=O)c1 [Compound 1218] ({CH2CO}-[3Pal]Y(Carboxymethyl)D[Phe(3-Me)]V[Bip]V[Orn][dL][Dab]LVTCA-NH2; thioether N-14),5.6 nM
3,Cc1cccc(C[C@@H]2NC(=O)[C@H](CC(=O)O)NC(=O)[C@H](Cc3ccc(C(=O)O)cc3)NC(=O)[C@H](CN)NC(=O)CSC[C@@H](C(=O)N[C@@H](C)C(N)=O)NC(=O)[C@H]([C@@H](C)O)NC(=O)[C@H](C(C)C)NC(=O)[C@H](CC(C)C)NC(=O)[C@H](CCN)NC(=O)[C@@H](CC(C)C)NC(=O)[C@H](CCCN)NC(=O)[C@H](C(C)C)NC(=O)[C@H](Cc3ccc(-c4ccccc4)cc3)NC(=O)[C@H](C(C)C)NC2=O)c1 [Compound 1219] ({CH2CO}-[Dap][Phe(4-COOH)]D[Phe(3-Me)]V[Bip]V[Orn][dL][Dab]LVTCA-NH2; thioether N-14),5.4 nM
4,Cc1cccc(C[C@@H]2NC(=O)[C@H](CC(=O)O)NC(=O)[C@H](Cc3ccc(OCC(=O)O)cc3)NC(=O)[C@H](Cc3ccc(OCC(=O)O)cc3)NC(=O)CSC[C@@H](C(=O)N[C@@H](C)C(N)=O)NC(=O)[C@H]([C@@H](C)O)NC(=O)[C@H](C(C)C)NC(=O)[C@H](CC(C)C)NC(=O)[C@H](CCN)NC(=O)[C@@H](CC(C)C)NC(=O)[C@H](CCCN)NC(=O)[C@H](C(C)C)NC(=O)[C@H](Cc3ccc(-c4ccccc4)cc3)NC(=O)[C@H](C(C)C)NC2=O)c1 [Compound 1220] ({CH2CO}-Y(Carboxymethyl)Y(Carboxymethyl)D[Phe(3-Me)]V[Bip]V[Orn][dL][Dab]LVTCA-NH2; thioether N-14),5.1 nM
5,Cc1cccc(C[C@@H]2NC(=O)[C@H](CC(=O)O)NC(=O)[C@H](Cc3ccc(C(=O)O)cc3)NC(=O)[C@H](Cc3ccc(OCC(=O)O)cc3)NC(=O)CSC[C@@H](C(=O)N[C@@H](C)C(N)=O)NC(=O)[C@H]([C@@H](C)O)NC(=O)[C@H](C(C)C)NC(=O)[C@H](CC(C)C)NC(=O)[C@H](CCN)NC(=O)[C@@H](CC(C)C)NC(=O)[C@H](CCCN)NC(=O)[C@H](C(C)C)NC(=O)[C@H](Cc3ccc(-c4ccccc4)cc3)NC(=O)[C@H](C(C)C)NC2=O)c1 [Compound 1221] ({CH2CO}-Y(Carboxymethyl)[Phe(4-COOH)]D[Phe(3-Me)]V[Bip]V[Orn][dL][Dab]LVTCA-NH2; thioether N-14),3 nM
6,Cc1cccc(C[C@@H]2NC(=O)[C@H](CC(=O)O)NC(=O)[C@H](Cc3ccncc3)NC(=O)[C@H](Cc3ccc(OCC(=O)O)cc3)NC(=O)CSC[C@@H](C(=O)N[C@@H](C)C(N)=O)NC(=O)[C@H]([C@@H](C)O)NC(=O)[C@H](C(C)C)NC(=O)[C@H](CC(C)C)NC(=O)[C@H](CCN)NC(=O)[C@@H](CC(C)C)NC(=O)[C@H](CCCN)NC(=O)[C@H](C(C)C)NC(=O)[C@H](Cc3ccc(-c4ccccc4)cc3)NC(=O)[C@H](C(C)C)NC2=O)c1 [Compound 1222] ({CH2CO}-Y(Carboxymethyl)[4Pal]D[Phe(3-Me)]V[Bip]V[Orn][dL][Dab]LVTCA-NH2; thioether N-14),14.7 nM
7,Cc1cccc(C[C@@H]2NC(=O)[C@H](CC(=O)O)NC(=O)[C@H](Cc3ccncc3)NC(=O)[C@H](CN)NC(=O)CSC[C@@H](C(=O)N[C@@H](C)C(N)=O)NC(=O)[C@H]([C@@H](C)O)NC(=O)[C@H](C(C)C)NC(=O)[C@H](CC(C)C)NC(=O)[C@H](CCN)NC(=O)[C@@H](CC(C)C)NC(=O)[C@H](CCCN)NC(=O)[C@H](C(C)C)NC(=O)[C@H](Cc3ccc(-c4ccccc4)cc3)NC(=O)[C@H](C(C)C)NC2=O)c1 [Compound 1223] ({CH2CO}-[Dap][4Pal]D[Phe(3-Me)]V[Bip]V[Orn][dL][Dab]LVTCA-NH2; thioether N-14),6.1 nM
8,Cc1cccc(C[C@@H]2NC(=O)[C@H](CC(=O)O)NC(=O)[C@H](Cc3ccc(OCC(=O)O)cc3)NC(=O)[C@H](Cc3cccnc3)NC(=O)CSC[C@@H](C(=O)N[C@@H](C)C(N)=O)NC(=O)[C@H]([C@@H](C)O)NC(=O)[C@H](C(C)C)NC(=O)[C@H](CC(C)C)NC(=O)[C@H](CCN)NC(=O)[C@@H](CC(C)C)NC(=O)[C@H](CCCN)NC(=O)[C@H](CCCNC(N)=O)NC(=O)[C@H](Cc3ccc(-c4ccccc4)cc3)NC(=O)[C@H](C(C)C)NC2=O)c1 [Compound 1225] ({CH2CO}-[3Pal]Y(Carboxymethyl)D[Phe(3-Me)]V[Bip][Cit][Orn][dL][Dab]LVTCA-NH2; thioether N-14),6.2 nM
9,CC(C)C[C@@H]1NC(=O)[C@H](Cc2c[nH]c3ccccc23)NC(=O)[C@H](CC(=O)O)NC(=O)[C@H](Cc2ccc(O)cc2)NC(=O)[C@H](Cc2ccccc2)NC(=O)CSC[C@@H](C(=O)N[C@@H](C)C(N)=O)NC(=O)[C@H](CO)NC(=O)[C@H](C(C)C)NC(=O)[C@H](CC(C)C)NC(=O)[C@H](CC(N)=O)NC(=O)[C@@H](CC(C)C)NC(=O)[C@H](CN)NC(=O)[C@H](CCC(=O)O)NC(=O)[C@H](Cc2ccc(-c3ccccc3)cc2)NC1=O [Compound 1226] ({CH2CO}-FYDWL[Bip]E[Dap][dL]NLVSCA-NH2; thioether N-14),32.2 nM
10,CC(C)C[C@@H]1NC(=O)[C@H](Cc2c[nH]c3ccccc23)NC(=O)[C@H](CC(=O)O)NC(=O)[C@H](Cc2ccc(O)cc2)NC(=O)[C@H](Cc2ccccc2)NC(=O)CSC[C@@H](C(=O)N[C@@H](C)C(N)=O)NC(=O)[C@H](CO)NC(=O)[C@H](C(C)C)NC(=O)[C@H](CC(C)C)NC(=O)[C@H](CCN)NC(=O)[C@@H](CC(C)C)NC(=O)[C@H](CCN)NC(=O)[C@H](CCCNC(N)=O)NC(=O)[C@H](Cc2ccc(-c3ccccc3)cc2)NC1=O [Compound 1228] ({CH2CO}-FYDWL[Bip][Cit][Dab][dL][Dab]LVSCA-NH2; thioether N-14),17.5 nM
11,CC(C)C[C@@H]1NC(=O)[C@H](Cc2c[nH]c3ccccc23)NC(=O)[C@H](CC(=O)O)NC(=O)[C@H](Cc2ccc(O)cc2)NC(=O)[C@H](Cc2ccccc2)NC(=O)CSC[C@@H](C(=O)N[C@@H](C)C(N)=O)NC(=O)[C@H](CO)NC(=O)[C@H](C(C)C)NC(=O)[C@H](CC(C)C)NC(=O)[C@H](CCN)NC(=O)[C@@H](CC(C)C)NC(=O)[C@H](CCN)NC(=O)[C@H](CCC(=O)O)NC(=O)[C@H](Cc2ccc(-c3ccccc3)cc2)NC1=O [Compound 1229] ({CH2CO}-FYDWL[Bip]E[Dab][dL][Dab]LVSCA-NH2; thioether N-14),14.5 nM
12,CC[C@H](C)[C@@H]1NC(=O)[C@H](Cc2ccc(-c3ccccc3)cc2)NC(=O)[C@H](CC(C)C)NC(=O)[C@H](Cc2c[nH]c3ccccc23)NC(=O)[C@H](CC(=O)O)NC(=O)[C@H](Cc2ccc(O)cc2)NC(=O)[C@H](Cc2ccccc2)NC(=O)CSC[C@@H](C(=O)NCC(N)=O)NC(=O)[C@H](CO)NC(=O)[C@H](C(C)C)NC(=O)[C@H](CC(C)C)NC(=O)[C@H](CCN)NC(=O)[C@@H](CC(C)C)NC(=O)[C@H](CCCN)NC1=O [Compound 1230] ({CH2CO}-FYDWL[Bip]I[Orn][dL][Dab]LVSCG-NH2; thioether N-14),18.1 nM
13,CC(C)C[C@@H]1NC(=O)[C@H](Cc2c[nH]c3ccccc23)NC(=O)[C@H](CC(=O)O)NC(=O)[C@H](Cc2ccc(O)cc2)NC(=O)[C@H](Cc2ccccc2)NC(=O)CSC[C@@H](C(=O)N[C@@H](C)C(N)=O)NC(=O)[C@H](CO)NC(=O)[C@H](C(C)C)NC(=O)[C@H](CC(C)C)NC(=O)[C@H](CC(N)=O)NC(=O)[C@@H](CC(C)C)NC(=O)[C@H](CCCN)NC(=O)[C@H](CCCNC(N)=O)NC(=O)[C@H](Cc2ccc(-c3ccccc3)cc2)NC1=O [Compound 1234] ({CH2CO}-FYDWL[Bip][Cit][Orn][dL]NLVSCA-NH2; thioether N-14),36.6 nM
14,CC(C)C[C@@H]1NC(=O)[C@H](Cc2c[nH]c3ccccc23)NC(=O)[C@H](CC(=O)O)NC(=O)[C@H](Cc2ccc(O)cc2)NC(=O)[C@H](Cc2ccccc2)NC(=O)CSC[C@@H](C(=O)N[C@@H](C)C(N)=O)NC(=O)[C@H](CO)NC(=O)[C@H](C(C)C)NC(=O)[C@H](CC(C)C)NC(=O)[C@H](CC(N)=O)NC(=O)[C@@H](CC(C)C)NC(=O)[C@H](CCCN)NC(=O)[C@H](CCC(=O)O)NC(=O)[C@H](Cc2ccc(-c3ccccc3)cc2)NC1=O [Compound 1235] ({CH2CO}-FYDWL[Bip]E[Orn][dL]NLVSCA-NH2; thioether N-14),21 nM
